Measurements taken from PubChem BioAssay AID1259407 (Chemical Carcinogenesis Research Information System (CCRIS), 2018).
The source made the active and inactive calls. How the calls were made is not given here.

Test system: CCRIS mutagenicity, Ames/micronucleus/aberration tests
Test: CCRIS mutagenicity studies
[1] = Test System: AMES SALMONELLA TYPHIMURIUM, Strain/Indicator: TA98, Metabolic Activation: NONE, Method: STANDARD PLATE
[2] = Test System: AMES SALMONELLA TYPHIMURIUM, Strain/Indicator: TA100, Metabolic Activation: NONE, Method: STANDARD PLATE
[3] = Test System: AMES SALMONELLA TYPHIMURIUM, Strain/Indicator: TA1538, Metabolic Activation: NONE, Method: STANDARD PLATE
[4] = Test System: AMES SALMONELLA TYPHIMURIUM, Strain/Indicator: TA98, Metabolic Activation: NONE, Method: PREINCUBATION
[5] = Test System: AMES SALMONELLA TYPHIMURIUM, Strain/Indicator: TA100, Metabolic Activation: NONE, Method: PREINCUBATION
[6] = Test System: AMES SALMONELLA TYPHIMURIUM, Strain/Indicator: TA102, Metabolic Activation: NONE, Method: PREINCUBATION

In the case of O=[N+]([O-])c1ccc2c([N+](=O)[O-])cc3ccccc3c2c1, the mutagenic call (Test System: AMES SALMONELLA TYPHIMURIUM, Strain/Indicator: TA98(1,8-DNP6), Metabolic Activation: NONE, Method: STANDARD PLATE) is reported as “active; positive”, the mutagenic call (Test System: AMES SALMONELLA TYPHIMURIUM, Strain/Indicator: TA98(NR), Metabolic Activation: NONE, Method: STANDARD PLATE) is reported as “active; positive” and the mutagenic call [1] is reported as “active; positive”. The mutagenic call [2] was “active; positive”, the mutagenic call (Test System: AMES SALMONELLA TYPHIMURIUM, Strain/Indicator: YG1021, Metabolic Activation: NONE, Method: STANDARD PLATE) was “active; positive” and the mutagenic call (Test System: AMES SALMONELLA TYPHIMURIUM, Strain/Indicator: YG1024, Metabolic Activation: NONE, Method: STANDARD PLATE) was “active; positive”. The mutagenic call (Test System: AMES SALMONELLA TYPHIMURIUM, Strain/Indicator: YG1026, Metabolic Activation: NONE, Method: STANDARD PLATE) was “active; positive” and the mutagenic call (Test System: AMES SALMONELLA TYPHIMURIUM, Strain/Indicator: YG1029, Metabolic Activation: NONE, Method: STANDARD PLATE) was “active; positive”.
In the case of ClCC(Cl)CBr (centres undefined), the mutagenic call (Test System: AMES SALMONELLA TYPHIMURIUM, Strain/Indicator: TA100, Metabolic Activation: RAT, LIVER, MICROSOMES, PHENOBARBITAL, NADPH COFACTORS, Method: STANDARD PLATE) is reported as “active; positive” and the mutagenic call (Test System: AMES SALMONELLA TYPHIMURIUM, Strain/Indicator: TA100, Metabolic Activation: RAT, LIVER, MICROSOMES, PHENOBARBITAL, Method: STANDARD PLATE) is reported as “inactive; negative”.
O=C(NC(=O)c1c(F)cccc1F)Nc1cc(Cl)c(Oc2ncc(C(F)(F)F)cc2Cl)c(Cl)c1 was tested, and the mutagenic call [1] was “inactive; negative”, the mutagenic call (Test System: AMES SALMONELLA TYPHIMURIUM, Strain/Indicator: TA98, Metabolic Activation: RAT, LIVER, S-9, AROCLOR 1254, Method: STANDARD PLATE) was “inactive; negative” and the mutagenic call [2] was “inactive; negative”. For the same compound, the mutagenic call (Test System: AMES SALMONELLA TYPHIMURIUM, Strain/Indicator: TA100, Metabolic Activation: RAT, LIVER, S-9, AROCLOR 1254, Method: STANDARD PLATE) was “inactive; negative”, the mutagenic call (Test System: AMES SALMONELLA TYPHIMURIUM, Strain/Indicator: TA1535, Metabolic Activation: NONE, Method: STANDARD PLATE) was “inactive; negative” and the mutagenic call (Test System: AMES SALMONELLA TYPHIMURIUM, Strain/Indicator: TA1535, Metabolic Activation: RAT, LIVER, S-9, AROCLOR 1254, Method: STANDARD PLATE) was “inactive; negative”. The mutagenic call (Test System: AMES SALMONELLA TYPHIMURIUM, Strain/Indicator: TA1537, Metabolic Activation: NONE, Method: STANDARD PLATE) was “inactive; negative”, the mutagenic call (Test System: AMES SALMONELLA TYPHIMURIUM, Strain/Indicator: TA1537, Metabolic Activation: RAT, LIVER, S-9, AROCLOR 1254, Method: STANDARD PLATE) was “inactive; negative” and the mutagenic call [3] was “inactive; negative”. For the same compound, the mutagenic call (Test System: AMES SALMONELLA TYPHIMURIUM, Strain/Indicator: TA1538, Metabolic Activation: RAT, LIVER, S-9, AROCLOR 1254, Method: STANDARD PLATE) was “inactive; negative”.
In the case of Oc1cccc2c1sc1ccccc12, the mutagenic call (Test System: CHINESE HAMSTER OVARY, Strain/Indicator: CHO-K1-BH4 (HGPRT)/6-THIOGUANINE, Metabolic Activation: RAT, LIVER, S-9, AROCLOR (4%)) is reported as “active; positive”.
For Cc1ccc2nc3c(ccc4ccccc43)cc2c1, the mutagenic call (Test System: AMES SALMONELLA TYPHIMURIUM, Strain/Indicator: TA97A, Metabolic Activation: NONE, Method: PREINCUBATION) was “inactive; negative”, the mutagenic call [4] was “inactive; negative” and the mutagenic call [5] was “active; positive”. For the same compound, the mutagenic call [6] was “active; positive”.
For CCCCCCC(=O)OCCN1CCN(CCCN2c3ccccc3Sc3ccc(C(F)(F)F)cc32)CC1, the mutagenic call (Test System: AMES SALMONELLA TYPHIMURIUM, Strain/Indicator: TA98, Metabolic Activation: NONE) was “inactive; negative”, the mutagenic call (Test System: AMES SALMONELLA TYPHIMURIUM, Strain/Indicator: TA98, Metabolic Activation: RAT, LIVER, S-9, PHENOBARBITAL AND 5,6-BENZOFLAVONE) was “inactive; negative” and the mutagenic call (Test System: AMES SALMONELLA TYPHIMURIUM, Strain/Indicator: TA100, Metabolic Activation: NONE) was “inactive; negative”. The mutagenic call (Test System: AMES SALMONELLA TYPHIMURIUM, Strain/Indicator: TA100, Metabolic Activation: RAT, LIVER, S-9, PHENOBARBITAL AND 5,6 BENZOFLAVONE) was “inactive; negative”, the mutagenic call (Test System: AMES SALMONELLA TYPHIMURIUM, Strain/Indicator: TA1535, Metabolic Activation: NONE) was “inactive; negative” and the mutagenic call (Test System: AMES SALMONELLA TYPHIMURIUM, Strain/Indicator: TA1535, Metabolic Activation: RAT, LIVER, S-9, PHENOBARBITAL AND 5,6-BENZOFLAVONE) was “inactive; negative”. The mutagenic call (Test System: AMES SALMONELLA TYPHIMURIUM, Strain/Indicator: TA1537, Metabolic Activation: NONE) was “inactive; negative”, the mutagenic call (Test System: AMES SALMONELLA TYPHIMURIUM, Strain/Indicator: TA1537, Metabolic Activation: RAT, LIVER, S-9, PHENOBARBITAL AND 5,6-BENZOFLAVONE) was “inactive; negative” and the mutagenic call (Test System: E. COLI, Strain/Indicator: WP2 UVRA, Metabolic Activation: NONE) was “inactive; negative”. For the same compound, the mutagenic call (Test System: E. COLI, Strain/Indicator: WP2 UVRA, Metabolic Activation: RAT, LIVER, S-9, PHENOBARBITAL AND 5,6 BENZOFLAVONE) was “inactive; negative”.
In the case of O[C@H]1[C@H]2O[C@H]2C=C[C@@H]1O, the mutagenic call (Test System: AMES SALMONELLA TYPHIMURIUM, Strain/Indicator: TA97, Metabolic Activation: NONE, Method: PREINCUBATION) is reported as “inactive; negative”, the mutagenic call [4] is reported as “inactive; negative” and the mutagenic call (Test System: AMES SALMONELLA TYPHIMURIUM, Strain/Indicator: TA1535, Metabolic Activation: NONE, Method: PREINCUBATION) is reported as “active; positive”.
With CC1=CC(=O)C=CC1=O the mutagenic call [4] was “inactive; negative”, the mutagenic call (Test System: AMES SALMONELLA TYPHIMURIUM, Strain/Indicator: TA98, Metabolic Activation: RAT, LIVER, S-9, PHENOBARBITAL AND 5,6-BENZOFLAVONE, Method: PREINCUBATION) was “inactive; negative” and the mutagenic call [5] was “inactive; negative”. The mutagenic call [6] was “inactive; negative”, the mutagenic call (Test System: AMES SALMONELLA TYPHIMURIUM, Strain/Indicator: TA102, Metabolic Activation: RAT, LIVER, S-9, PHENOBARBITAL AND 5,6-BENZOFLAVONE, Method: PREINCUBATION) was “inactive; negative” and the mutagenic call (Test System: AMES SALMONELLA TYPHIMURIUM, Strain/Indicator: TA104, Metabolic Activation: NONE, Method: PREINCUBATION) was “inactive; negative”. The mutagenic call (Test System: AMES SALMONELLA TYPHIMURIUM, Strain/Indicator: TA104, Metabolic Activation: RAT, LIVER, S-9, PHENOBARBITAL AND 5,6-BENZOFLAVONE, Method: PREINCUBATION) was “inactive; negative”, the mutagenic call (Test System: AMES SALMONELLA TYPHIMURIUM, Strain/Indicator: TA2637, Metabolic Activation: NONE, Method: PREINCUBATION) was “inactive; negative” and the mutagenic call (Test System: AMES SALMONELLA TYPHIMURIUM, Strain/Indicator: TA2637, Metabolic Activation: RAT, LIVER, S-9, PHENOBARBITAL AND 5,6-BENZOFLAVONE, Method: PREINCUBATION) was “active; positive”.
For COc1cc(Cc2cnc(N)nc2N)cc(OC)c1OC, the mutagenic call (Test System: AMES SALMONELLA TYPHIMURIUM, Strain/Indicator: TA97A, Metabolic Activation: NONE, Method: STANDARD PLATE) was “inactive; negative”, the mutagenic call (Test System: AMES SALMONELLA TYPHIMURIUM, Strain/Indicator: TA97A, Metabolic Activation: RAT, LIVER, S-9, PHENOBARBITAL, Method: STANDARD PLATE) was “inactive; negative” and the mutagenic call [1] was “active; positive”. For the same compound, the mutagenic call (Test System: AMES SALMONELLA TYPHIMURIUM, Strain/Indicator: TA98, Metabolic Activation: RAT, LIVER, S-9, PHENOBARBITAL, Method: STANDARD PLATE) was “active; positive”, the mutagenic call [2] was “inactive; negative” and the mutagenic call (Test System: AMES SALMONELLA TYPHIMURIUM, Strain/Indicator: TA100, Metabolic Activation: RAT, LIVER, S-9, PHENOBARBITAL, Method: STANDARD PLATE) was “inactive; negative”. The mutagenic call (Test System: AMES SALMONELLA TYPHIMURIUM, Strain/Indicator: TA102, Metabolic Activation: NONE, Method: STANDARD PLATE) was “inactive; negative”, the mutagenic call (Test System: AMES SALMONELLA TYPHIMURIUM, Strain/Indicator: TA102, Metabolic Activation: RAT, LIVER, S-9, PHENOBARBITAL, Method: STANDARD PLATE) was “inactive; negative” and the mutagenic call [3] was “active; positive”. The mutagenic call (Test System: AMES SALMONELLA TYPHIMURIUM, Strain/Indicator: TA1538, Metabolic Activation: RAT, LIVER, S-9, PHENOBARBITAL, Method: STANDARD PLATE) was “active; positive”, the mutagenic call (Test System: E.COLI, Strain/Indicator: WP2UVRA/PKM101, Metabolic Activation: NONE, Method: PREINCUBATION) was “inactive; negative” and the mutagenic call (Test System: E.COLI, Strain/Indicator: WP2UVRA/PKM101, Metabolic Activation: RAT LIVER S-9, PHENOBARBITAL AND 5,6-BENZOFLAVONE, Method: PREINCUBATION) was “inactive; negative”.
